Assay results from patent US9738634B2, “Heterocyclic amide compound and herbicide” (SYNGENTA PARTICIPATIONS AG, priority 2013, dated 2017).

Legend:
Type in all cases: in vivo
Conditions in all cases: treatment dosage 320 g/ha
barnyard grass [1] = experiment: Test Example 1: weedkilling efficacy, preemergent weed treatment in the submerged state; A: barnyard grass
Summary of the method: (§1)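 Emulsion diluted with water to the specified per-hectare dosage is applied onto flood water (4 cm) over alluvial soil on the sowing day, with barnyard grass, bulrush and pondweed seeded and rice (2.5-leaf) transplanted; plants grow at 25–30 °C and are rated at 3 weeks.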

bulrush [2] = experiment: Test Example 1: weedkilling efficacy, preemergent weed treatment in the submerged state; B: bulrush
Summary of the method: as §1

oval-leafed pondweed [3] = experiment: Test Example 1: weedkilling efficacy, preemergent weed treatment in the submerged state; C: oval-leafed pondweed
Summary of the method: as §1

transplanted rice = experiment: Test Example 1: preemergent weed treatment in the submerged state, effect on crop; a: transplanted rice
Summary of the method: as §1

barnyard grass [4] = experiment: Test Example 2: weedkilling efficacy, growth period weed treatment in the submerged state; A: barnyard grass
Summary of the method: (§2)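 First, alluvial soil in pots is flooded to 4 cm and mixed seed is sown. Next, plants grow in a greenhouse at 25 to 30° C until the 1-2 leaf stage. Then diluted emulsion is applied onto the water surface at the given g/ha rate, and injury is assessed after 3 weeks.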

bulrush [5] = experiment: Test Example 2: weedkilling efficacy, growth period weed treatment in the submerged state; B: bulrush
Summary of the method: as §2

oval-leafed pondweed [6] = experiment: Test Example 2: weedkilling efficacy, growth period weed treatment in the submerged state; C: oval-leafed pondweed
Summary of the method: as §2

crabgrass [7] = experiment: Test Example 3: weedkilling efficacy through soil treatment; D: crabgrass
Summary of the method: (§3)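 Crop and weed responses were judged three weeks after a uniform surface spray of the water-diluted emulsion at the given g/ha rate. Seeds sat beneath about 1.5 cm of sterilized diluvial soil, and boxes stood in a greenhouse at 25 to 30° C.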

green foxtail [8] = experiment: Test Example 3: weedkilling efficacy through soil treatment; E: green foxtail
Summary of the method: as §3

barnyard grass [9] = experiment: Test Example 3: weedkilling efficacy through soil treatment; F: barnyard grass
Summary of the method: as §3

wild oat [10] = experiment: Test Example 3: weedkilling efficacy through soil treatment; G: wild oat
Summary of the method: as §3

black-grass [11] = experiment: Test Example 3: weedkilling efficacy through soil treatment; H: black-grass
Summary of the method: as §3

Italian ryegrass [12] = experiment: Test Example 3: weedkilling efficacy through soil treatment; I: Italian ryegrass
Summary of the method: as §3

common wind-grass [13] = experiment: Test Example 3: weedkilling efficacy through soil treatment; J: common wind-grass
Summary of the method: as §3

Indian mallow [14] = experiment: Test Example 3: weedkilling efficacy through soil treatment; K: Indian mallow
Summary of the method: as §3

redroot pigweed [15] = experiment: Test Example 3: weedkilling efficacy through soil treatment; L: redroot pigweed
Summary of the method: as §3

chickweed [16] = experiment: Test Example 3: weedkilling efficacy through soil treatment; N: chickweed
Summary of the method: as §3

catchweed [17] = experiment: Test Example 3: weedkilling efficacy through soil treatment; O: catchweed
Summary of the method: as §3

birds-eye speedwell [18] = experiment: Test Example 3: weedkilling efficacy through soil treatment; p: birds-eye speedwell
Summary of the method: as §3

directly sown rice [19] = experiment: Test Example 3: soil treatment, effect on crop; b: directly sown rice
Summary of the method: as §3

corn [20] = experiment: Test Example 3: soil treatment, effect on crop; c: corn
Summary of the method: as §3

soybean [21] = experiment: Test Example 3: soil treatment, effect on crop; d: soybean
Summary of the method: as §3

wheat [22] = experiment: Test Example 3: soil treatment, effect on crop; e: wheat
Summary of the method: as §3

beet [23] = experiment: Test Example 3: soil treatment, effect on crop; f: beet
Summary of the method: as §3

rapeseed [24] = experiment: Test Example 3: soil treatment, effect on crop; g: rapeseed
Summary of the method: as §3

crabgrass [25] = experiment: Test Example 4: weedkilling efficacy by foliar treatment; D: crabgrass
Summary of the method: (§4)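 Seeds are spot-sown into sterilized diluvial soil and covered with about 1.5 cm of soil. After 14 days' greenhouse growth at 25 to 30° C, plants are sprayed on stems and leaves with diluted emulsion at the stated g/ha rate, then scored at 3 weeks.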

green foxtail [26] = experiment: Test Example 4: weedkilling efficacy by foliar treatment; E: green foxtail
Summary of the method: as §4

barnyard grass [27] = experiment: Test Example 4: weedkilling efficacy by foliar treatment; F: barnyard grass
Summary of the method: as §4

wild oat [28] = experiment: Test Example 4: weedkilling efficacy by foliar treatment; G: wild oat
Summary of the method: as §4

black-grass [29] = experiment: Test Example 4: weedkilling efficacy by foliar treatment; H: black-grass
Summary of the method: as §4

Italian ryegrass [30] = experiment: Test Example 4: weedkilling efficacy by foliar treatment; I: Italian ryegrass
Summary of the method: as §4

common wind-grass [31] = experiment: Test Example 4: weedkilling efficacy by foliar treatment; J: common wind-grass
Summary of the method: as §4

Indian mallow [32] = experiment: Test Example 4: weedkilling efficacy by foliar treatment; K: Indian mallow
Summary of the method: as §4

redroot pigweed [33] = experiment: Test Example 4: weedkilling efficacy by foliar treatment; L: redroot pigweed
Summary of the method: as §4

fig-leafed goosefoot = experiment: Test Example 4: weedkilling efficacy by foliar treatment; M: fig-leafed goosefoot
Summary of the method: as §4

chickweed [34] = experiment: Test Example 4: weedkilling efficacy by foliar treatment; N: chickweed
Summary of the method: as §4

catchweed [35] = experiment: Test Example 4: weedkilling efficacy by foliar treatment; O: catchweed
Summary of the method: as §4

birds-eye speedwell [36] = experiment: Test Example 4: weedkilling efficacy by foliar treatment; p: birds-eye speedwell
Summary of the method: as §4

directly sown rice [37] = experiment: Test Example 4: foliar treatment, effect on crop; b: directly sown rice
Summary of the method: as §4

corn [38] = experiment: Test Example 4: foliar treatment, effect on crop; c: corn
Summary of the method: as §4

soybean [39] = experiment: Test Example 4: foliar treatment, effect on crop; d: soybean
Summary of the method: as §4

wheat [40] = experiment: Test Example 4: foliar treatment, effect on crop; e: wheat
Summary of the method: as §4

beet [41] = experiment: Test Example 4: foliar treatment, effect on crop; f: beet
Summary of the method: as §4

rapeseed [42] = experiment: Test Example 4: foliar treatment, effect on crop; g: rapeseed
Summary of the method: as §4

SMILES: CC1=C(c2ccccc2)C(=O)N(C(C)(C)C(=O)Nc2cc(OC(F)F)ccn2)CO1 [B-2-64]
- A (barnyard grass) weedkilling efficacy grade (barnyard grass [1]): 5 (weed kill ratio 90% or more, (practically complete withering))
- B (bulrush) weedkilling efficacy grade (bulrush [2]): 5 (weed kill ratio 90% or more, (practically complete withering))
- C (oval-leafed pondweed) weedkilling efficacy grade (oval-leafed pondweed [3]): 5 (weed kill ratio 90% or more, (practically complete withering))
- a (transplanted rice) effect on crop grade (transplanted rice): 4 (weed kill ratio 70% or more, less than 90%)
- A (barnyard grass) weedkilling efficacy grade (barnyard grass [4]): 5 (weed kill ratio 90% or more, (practically complete withering))
- B (bulrush) weedkilling efficacy grade (bulrush [5]): 5 (weed kill ratio 90% or more, (practically complete withering))
- C (oval-leafed pondweed) weedkilling efficacy grade (oval-leafed pondweed [6]): 5 (weed kill ratio 90% or more, (practically complete withering))
- D (crabgrass) weedkilling efficacy grade (crabgrass [7]): 5 (weed kill ratio 90% or more, (practically complete withering))
- E (green foxtail) weedkilling efficacy grade (green foxtail [8]): 5 (weed kill ratio 90% or more, (practically complete withering))
- F (barnyard grass) weedkilling efficacy grade (barnyard grass [9]): 5 (weed kill ratio 90% or more, (practically complete withering))
- G (wild oat) weedkilling efficacy grade (wild oat [10]): 3 (weed kill ratio 40% or more, less than 70%)
- H (black-grass) weedkilling efficacy grade (black-grass [11]): 5 (weed kill ratio 90% or more, (practically complete withering))
- I (Italian ryegrass) weedkilling efficacy grade (Italian ryegrass [12]): 5 (weed kill ratio 90% or more, (practically complete withering))
- J (common wind-grass) weedkilling efficacy grade (common wind-grass [13]): 5 (weed kill ratio 90% or more, (practically complete withering))
- K (Indian mallow) weedkilling efficacy grade (Indian mallow [14]): 3 (weed kill ratio 40% or more, less than 70%)
- L (redroot pigweed) weedkilling efficacy grade (redroot pigweed [15]): 4 (weed kill ratio 70% or more, less than 90%)
- N (chickweed) weedkilling efficacy grade (chickweed [16]): 4 (weed kill ratio 70% or more, less than 90%)
- O (catchweed) weedkilling efficacy grade (catchweed [17]): 0 (weed kill ratio 5% or less (practically no effect))
- P (birds-eye speedwell) weedkilling efficacy grade (birds-eye speedwell [18]): 5 (weed kill ratio 90% or more, (practically complete withering))
- b (directly sown rice) effect on crop grade (directly sown rice [19]): 4 (weed kill ratio 70% or more, less than 90%)
- c (corn) effect on crop grade (corn [20]): 1 (weed kill ratio 5% or more, less than 20%)
- d (soybean) effect on crop grade (soybean [21]): 0 (weed kill ratio 5% or less (practically no effect))
- e (wheat) effect on crop grade (wheat [22]): 0 (weed kill ratio 5% or less (practically no effect))
- f (beet) effect on crop grade (beet [23]): 4 (weed kill ratio 70% or more, less than 90%)
- g (rapeseed) effect on crop grade (rapeseed [24]): 3 (weed kill ratio 40% or more, less than 70%)
- D (crabgrass) weedkilling efficacy grade (crabgrass [25]): 5 (weed kill ratio 90% or more, (practically complete withering))
- E (green foxtail) weedkilling efficacy grade (green foxtail [26]): 5 (weed kill ratio 90% or more, (practically complete withering))
- F (barnyard grass) weedkilling efficacy grade (barnyard grass [27]): 5 (weed kill ratio 90% or more, (practically complete withering))
- G (wild oat) weedkilling efficacy grade (wild oat [28]): 4 (weed kill ratio 70% or more, less than 90%)
- H (black-grass) weedkilling efficacy grade (black-grass [29]): 5 (weed kill ratio 90% or more, (practically complete withering))
- I (Italian ryegrass) weedkilling efficacy grade (Italian ryegrass [30]): 5 (weed kill ratio 90% or more, (practically complete withering))
- J (common wind-grass) weedkilling efficacy grade (common wind-grass [31]): 5 (weed kill ratio 90% or more, (practically complete withering))
- K (Indian mallow) weedkilling efficacy grade (Indian mallow [32]): 4 (weed kill ratio 70% or more, less than 90%)
- L (redroot pigweed) weedkilling efficacy grade (redroot pigweed [33]): 4 (weed kill ratio 70% or more, less than 90%)
- M (fig-leafed goosefoot) weedkilling efficacy grade (fig-leafed goosefoot): 4 (weed kill ratio 70% or more, less than 90%)
- N (chickweed) weedkilling efficacy grade (chickweed [34]): 4 (weed kill ratio 70% or more, less than 90%)
- O (catchweed) weedkilling efficacy grade (catchweed [35]): 4 (weed kill ratio 70% or more, less than 90%)
- P (birds-eye speedwell) weedkilling efficacy grade (birds-eye speedwell [36]): 4 (weed kill ratio 70% or more, less than 90%)
- b (directly sown rice) effect on crop grade (directly sown rice [37]): 4 (weed kill ratio 70% or more, less than 90%)
- c (corn) effect on crop grade (corn [38]): 0 (weed kill ratio 5% or less (practically no effect))
- d (soybean) effect on crop grade (soybean [39]): 4 (weed kill ratio 70% or more, less than 90%)
- e (wheat) effect on crop grade (wheat [40]): 0 (weed kill ratio 5% or less (practically no effect))
- f (beet) effect on crop grade (beet [41]): 4 (weed kill ratio 70% or more, less than 90%)
- g (rapeseed) effect on crop grade (rapeseed [42]): 4 (weed kill ratio 70% or more, less than 90%)
